Assay results reported in patent US20230174584A1, “Antibiotic Compounds” (priority 2019, published 2023).
Converted amounts (≈) assume the structure as drawn. “And” between values parts separate entries of the source, which are not always exact repeats. Equal values may be shown once. Read-outs that look alike come from different tables or passages of the source.

Assays:
PK in naïve mice = assay type: in vivo; settings: mouse, 3 mg kg^−1 subcutaneous; for Cmax: read-out: C0/Cmax
Method: (§1) Mouse studies were performed using pathogen-free CD1 mice (ICR), a well characterized outbred murine strain (supplied by Charles River, Margate UK). All mice were male and weighed 11-15 gram upon arrival. and were allowed to acclimatize for at least 7 days prior to study initiation. Mice were individually housed in sterilized ventilated cages supplied with HEPA filtered sterile air and aspen chip bedding (changed a minimum of once a week). Food and water was available ad libitum. The room temperature was 22° C. 1° C., with a 60% relative humidity and a maximum background noise of 56 dB. Mice were exposed to a 12 h light/dark cycle.
Test article 5 was administered at 3 mg kg^−1 subcutaneously in naïve mice (n=3) that were not immunosuppressed or infected. Whole blood was collected from the tail vein at 5 min, 15 min, 30 min, 1 h, 2 h, 4 h and 8 h. The last sample was taken as a terminal cardiac puncture.

VRE E155 = test: Resistance development serial passage assay; assay type: cell-based, Enterococcus faecium; settings: VanA-type VRE strain serially passaged over 30 days in sub-lethal antibiotic concentrations
Method: (§2) FIG. 3 illustrates the results obtained when selected compounds were assessed using a resistance development serial passage assay. A) Daily fold-increase of MIC compared to initial MIC against MRSA USA 300 grown in sub-lethal concentrations of daptomycin, compound 5 or compound 16 over 30 days. B). Daily fold-increase of MIC compared to initial MIC against VRE E155 grown in sub-lethal concentrations of daptomycin, compound 5 or compound 16 over 30 days.
(§3) From glycerol stocks, bacterial strains were cultured on blood agar plates and incubated overnight at 37° C. A single colony was grown to exponential phase (OD600=0.5) in TSB+0.002% p80 and diluted 1:100 in fresh media. In polypropylene 96-well microtiter plates, antibiotics were added in biological triplicates and serial diluted 2-fold by transfer and mixing from one well to the next to achieve a final volume of 50 μL per well. An equal volume of bacterial suspension was added to the wells and plates were incubated overnight at 37° C. […] This procedure was repeated for 30 days and the MIC was recorded daily. Cultures containing daptomycin were supplemented with 50 mg L^−1 CaCl2 and 10 mg L^−1 MgSO4. The experiment was performed in biological replicates and for each replicate the MIC was determined from the median of a minimum of triplicates.

[1] = Tolerability in naïve mice; assay type: in vivo; settings: 100 mg/kg (SC), two mice
Method: as §1
Tolerability of compound 5 was assessed at 100 mg kg^−1 subcutaneous injection (in 10% DMSO in water for injection) in naïve mice (n=2) that were not immunosuppressed or infected.

[2] = tested on: MRSA USA300 strain NRS384; test: Efficacy, neutropenic mouse thigh infection; assay type: in vivo, Staphylococcus aureus (in CD1 mice); settings: neutropenic mice, individual thighs, 23 h post treatment
Method: as §1
Mice were made neutropenic by a subcutaneous injection of 150 mg kg^−1 and 100 mg kg^−1 cyclophosphamide 4 days and 1 day before infection respectively. Mice were infected in both thighs with MRSA USA300 strain NRS384 (1.47×10^6 CFU mL-1, 7.33×10^4 CFU per thigh) intramuscularly under temporary anesthesia. […] Pretreatment group was euthanized one hour after infection and the other treatment groups were euthanized […]. Weighted thighs were homogenized and cultured on MSA agar at 37° C. for 18-24 h followed by colony counting. Each group consisted of n=6 mice with both thighs infected (n=12 thighs per treatment group) and each thigh was treated as a separate sample. Data analysis was done with StatsDirect software v. 3.2.8 using non-parametric statistical models (Kruskal-Wallis using Conover-Inman to make all pairwise comparisons between groups).
Colony forming units in neutropenic mice infected in each thigh with MRSA followed 1 h later by the first subcutaneous dose of antibiotic at concentrations indicated and subsequently the same dose at indicated intervals, with sacrifice and bacterial load determination in homogenized thighs at 23 h post treatment (24 h post infection). […] Data are mean±SEM (n=12, six mice per group, two thighs per mouse).

MRSA USA 300 = test: Resistance development serial passage assay; assay type: cell-based, Staphylococcus aureus; settings: MRSA serially passaged over 30 days in sub-lethal antibiotic concentrations
Method: as §2, §3

E. faecium E155 = settings: Enterococcus faecium E155, strain description; cited from earlier work

CCCCCCCNC(N)=Nc1ccc(CN[C@@]2(C)C[C@H](O[C@H]3[C@H](Oc4c5cc6cc4Oc4ccc(cc4Cl)[C@@H](O)[C@@H](NC(=O)[C@@H](CC(C)C)NC)C(=O)N[C@@H](CC(N)=O)C(=O)N[C@H]6C(=O)N[C@H]4C(=O)N[C@H](C(=O)N[C@H](C(=O)O)c6cc(O)cc(O)c6-c6cc4ccc6O)[C@H](O)c4ccc(c(Cl)c4)O5)O[C@H](CO)[C@@H](O)[C@@H]3O)O[C@@H](C)[C@H]2O)cc1 [Compound 5]
AUC0-t (PK in naïve mice; Mean/Median (n=3)): 3.134 µM·h | AUC % Extrapolation to infinity (PK in naïve mice; Mean/Median (n=3)): 1.9% | C0/Cmax (PK in naïve mice; Mean/Median (n=3)): 1813 ng/mL | CL/CL_F (PK in naïve mice; Mean/Median (n=3)): 9.30 mL/min/kg | Clast (PK in naïve mice; Mean/Median (n=3)): 54.6 ng/mL | t1/2 (PK in naïve mice; Mean/Median (n=3)): 1.22 h | tlast (PK in naïve mice; Mean/Median (n=3)): 8.00 h | tmax (PK in naïve mice; Mean/Median (n=3)): 1.00 h | Cmax (PK in naïve mice; Mean/Median (n=3)): 1070 nM | AUC0-t (PK in naïve mice; individual samples 1-3): 3.238 µM·h and 3.368 µM·h and 2.797 µM·h | AUC % Extrapolation to infinity (PK in naïve mice; individual samples 1-3): 3.1% and 0.9% and 1.6% | AUCinf (PK in naïve mice; individual samples 1-3): 5664 ng hr mL^−1 and 5759 ng hr mL^−1 and 4814 ng hr mL^−1 and 3342 nM hr and 3398 nM hr and 2841 nM hr | C0/Cmax (PK in naïve mice; individual samples 1-3): 1989 ng/mL and 1903 ng/mL and 1546 ng/mL | CL/CL_F (PK in naïve mice; individual samples 1-3): 9 mL min^−1 kg^−1 (2×) and 10 mL min^−1 kg^−1 | Clast (PK in naïve mice; individual samples 1-3): 85.3 ng/mL and 34.4 ng/mL and 44.2 ng/mL | t1/2 (PK in naïve mice; individual samples 1-3): 1.43 h and 1.05 h and 1.17 h | tlast (PK in naïve mice; individual samples 1-3): 8.00 h | tmax (PK in naïve mice; individual samples 1-3): 1.00 h (2×) and 2.00 h | Cmax (PK in naïve mice; individual samples 1-3): 1170 nM and 1120 nM and 912 nM | resistance induction, fold-increase of MIC compared to initial MIC (VRE E155): low levels of resistance induction | adverse effects and gross morphology [1]: No adverse effects and normal gross morphology | tolerability [1]: well tolerated | Thigh burden ([2]; 3 mg kg^−1 q6h subcutaneous): 113 CFU g^−1 (2×) and 368 CFU g^−1 and 456 CFU g^−1 and 9139 CFU g^−1 and 666 CFU g^−1 and 350 CFU g^−1 and 587 CFU g^−1 and 75 CFU g^−1 and 42132 CFU g^−1 and 7735 CFU g^−1 and 3885 CFU g^−1 | Thigh burden ([2]; 10 mg kg^−1 q6h subcutaneous): 368 CFU g^−1 and 35 CFU g^−1 and 77 CFU g^−1 and 96 CFU g^−1 and 76 CFU g^−1 and 40 CFU g^−1 and BLD (2×) and 158 CFU g^−1 and 7984 CFU g^−1 and 81 CFU g^−1 and 34 CFU g^−1 | resistance induction, fold-increase of MIC compared to initial MIC (MRSA USA 300): did not induce resistance

CN[C@H](CC(C)C)C(=O)N[C@H]1C(=O)N[C@@H](CC(N)=O)C(=O)N[C@H]2C(=O)N[C@H]3C(=O)N[C@H](C(=O)N[C@H](C(=O)O)c4cc(O)cc(O)c4-c4cc3ccc4O)[C@H](O)c3ccc(c(Cl)c3)Oc3cc2cc(c3O[C@@H]2O[C@H](CO)[C@@H](O)[C@H](O)[C@H]2O[C@H]2C[C@](C)(N)[C@H](O)[C@H](C)O2)Oc2ccc(cc2Cl)[C@H]1O [Vancomycin, reference compound]
MIC vancomycin (strain description) (E. faecium E155): 1020 µg/mL (≈ 707 µM) | Thigh burden ([2]; 25 mg kg^−1 q12h subcutaneous): 2023 CFU g^−1 and 1148 CFU g^−1 and 142564 CFU g^−1 and 283390 CFU g^−1 and 1204 CFU g^−1 and 310 CFU g^−1 and BLD and 6736 CFU g^−1 and 106 CFU g^−1 and 825 CFU g^−1 and 1030 CFU g^−1
